The values that follow come from patent US4533665A, “[[Bis(aryl)methylene]-1-piperidinyl]alkyl-pyrimidinones” (Janssen Pharmaceutica, priority 1984, dated 1985).

Counter-ions that a name gives are not always drawn.

The target in this experiment is T1, S2-receptor (Rattus norvegicus, UniProt P14842).
T1 construct: Caudal arteries from fasted male rats; from tissue; host or cells: rat caudal artery, helical strips
T1 sequence (P14842 whole entry): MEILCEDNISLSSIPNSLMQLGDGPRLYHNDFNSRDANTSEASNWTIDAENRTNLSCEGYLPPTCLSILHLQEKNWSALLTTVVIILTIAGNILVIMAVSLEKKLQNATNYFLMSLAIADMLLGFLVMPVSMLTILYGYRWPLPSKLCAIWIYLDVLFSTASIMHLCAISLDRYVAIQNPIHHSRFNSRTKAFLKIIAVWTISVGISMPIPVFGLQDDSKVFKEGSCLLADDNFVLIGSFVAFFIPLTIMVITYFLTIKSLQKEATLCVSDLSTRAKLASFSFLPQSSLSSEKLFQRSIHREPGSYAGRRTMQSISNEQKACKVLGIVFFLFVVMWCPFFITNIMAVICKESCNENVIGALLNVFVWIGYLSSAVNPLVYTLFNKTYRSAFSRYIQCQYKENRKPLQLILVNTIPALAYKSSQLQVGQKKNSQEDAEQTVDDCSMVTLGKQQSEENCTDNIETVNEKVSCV
Description: antagonistic activity on the effect of serotonin on the caudal artery of the rat (caudal artery test). The settings on record: rat caudal artery strips; serotonin 40 ng/ml; 5 minutes after adding the drug; read-out: ED50 (minimal concentration which reduces the amplitude of the serotonin-induced contraction to at least 50% of its normal value) (converted). As for the experimental part: ANTAGONISTIC ACTIVITY ON THE EFFECT OF SEROTONIN ON THE CAUDAL ARTERY OF THE RAT
Caudal arteries from fasted male rats (210-235 g) were used in the test. […] Submaximal contractions of the arterial strips were produced by adding single doses of serotonin (40 ng/ml) to the organ bath for 2 minutes with each time an interval of 10 minutes. The amplitude of the contraction was measured before and 5 minutes after adding the drug. After washing out, the agonist was added again three times in order to see whether the contraction was restored and normalized. […] In this connection the ED50 -values are the minimal concentrations of the concerned drugs which reduce the amplitude of the contraction to at least 50% of its normal value.
As for `Cc1nc2scc(C)n2c(=O)c1CCN1CCC(=C(c2ccccc2)c2ccccc2)CC1` [Compound 105, 6-[2-[4-(diphenylmethylene)-1-piperidinyl]ethyl]-3,7-dimethyl-5H-thiazolo[3,2-a]pyrimidin-5-one], the IC50 was 0.702 pM.
Consider `Cc1nc2scc(C)n2c(=O)c1CCN1CCC(=C(c2ccc(F)cc2)c2cccc(Cl)c2)CC1` [Compound 7], for which the IC50 is 1.24 pM.
On to `Cc1cccc(C(=C2CCN(CCc3c(C)nc4scc(C)n4c3=O)CC2)c2ccc(F)cc2)c1` [Compound 122], for which the IC50 is 0.656 pM.
`Cc1nc2n(c(=O)c1CCN1CCC(=C(c3ccc(O)cc3)c3ccc(F)cc3)CC1)CCCS2` [Compound 37]: the IC50 was 2.64 pM.
On to `Cc1nc2sccn2c(=O)c1CCN1CCC(=C(c2ccc(F)cc2)c2ccc(F)cc2)C(O)C1` (centres unmarked) [Compound 60], for which the IC50 is 2.63 pM.
`Cc1nc2sccn2c(=O)c1CCN1CCC(=C(c2ccccc2)c2ccc(O)cc2)CC1` [Compound 80]: the IC50 was 2.84 pM.
In the case of `COc1ccc(C(=C2CCN(CCc3c(C)nc4n(c3=O)CCCS4)CC2)c2ccc(F)cc2)cc1` [Compound 145, 7-[2-[4-[(4-fluorophenyl)(4-methoxyphenyl)methylene]-1-piperidinyl]ethyl]-3,4-dihydro-8-methyl-2H,6H-pyrimido[2,1-b][1,3]thiazin-6-one dihydrochloride], the IC50 is 2.25 pM.
Regarding `Cc1nc2ccccn2c(=O)c1CCN1CCC(=C(c2ccc(F)cc2)c2ccc(F)cc2)CC1` [Compound 2], the IC50 was 2.76 pM.
Regarding `Cc1nc2sccn2c(=O)c1CCN1CCC(=C(c2ccc(F)cc2)c2cccnc2)CC1` [Compound 53], the IC50 was 2.82 pM.
As to `Cc1nc2ccccn2c(=O)c1CCN1CCC(=C(c2ccc(F)cc2)c2ccc(F)cc2)C(O)C1` (centres unmarked) [Compound 61], the IC50 was 4.51 pM.
For `Cc1nc2ccc(Cl)cn2c(=O)c1CCN1CCC(=C(c2ccc(F)cc2)c2ccc(F)cc2)CC1` [Compound 51] the value was 1.4 pM.
For `Cc1nc2sccn2c(=O)c1CCN1CCC(=C(c2ccc(F)cc2)c2cccc(Cl)c2)CC1` [Compound 6] the value was 1.28 pM; for `Cc1ccc(C(=C2CCN(CCc3c(C)nc4scc(C)n4c3=O)CC2)c2ccccc2)cc1` [Compound 129], 0.49 pM; for `Cc1nc2sccn2c(=O)c1CCN1CCC(=C(c2ccc(O)cc2)c2ccc(F)cc2)CC1` [Compound 24], 0.378 pM.
For the compound `Cc1cccc(C(=C2CCN(CCc3c(C)nc4sccn4c3=O)CC2)c2ccccc2)c1` [Compound 69], the IC50 was 0.702 pM.
For `COc1ccc(C(=C2CCN(CCc3c(C)nc4scc(C)n4c3=O)CC2)c2ccc(F)cc2)cc1` [Compound 142, 6-[2-[4-[(4-fluorophenyl)(4-methoxyphenyl)methylene]-1-piperidinyl]ethyl]-3,7-dimethyl-5H-thiazolo[3,2-a]pyrimidin-5-one] the value was 1.11 pM; for `Cc1nc2n(c(=O)c1CCN1CCC(=C(c3ccc(F)cc3)c3cccc(F)c3)CC1)CCS2` [Compound 28], 1.17 pM; for `Cc1nc2ccccn2c(=O)c1CCN1CCC(=C(c2ccc(F)cc2)c2cccnc2)CC1` [Compound 57], 2.86 pM.
For `Cc1ccccc1C(=C1CCN(CCc2c(C)nc3n(c2=O)CCCC3)CC1)c1ccccc1` [Compound 92], the IC50 was 0.705 pM.
`Cc1nc2ccccn2c(=O)c1CCN1CCC(=C(c2ccc(F)cc2)c2ccc(F)cc2)CC1` [Compound 58]: the IC50 was 1.34 pM.
As for `Cc1ccc(C(=C2CCN(CCc3c(C)nc4n(c3=O)CCCC4)CC2)c2ccc(F)cc2)cc1` [Compound 46], the IC50 is 2.76 pM.
On to `Cc1nc2ccccn2c(=O)c1CCN1CCC(=C(c2ccc(F)cc2)c2cccc(C(F)(F)F)c2)CC1` [Compound 31], for which the IC50 is 4.79 pM.
With `Cc1cccc(C(=C2CCN(CCc3c(C)nc4n(c3=O)CCCS4)CC2)c2ccccc2)c1` [Compound 70], the IC50 was 1.19 pM.
Take `Cc1ccc(C(=C2CCN(CCc3c(C)nc4sccn4c3=O)CC2)c2ccc(C)cc2)cc1` [Compound 26]: the IC50 is 1.19 pM.
Consider `Cc1nc2scc(C)n2c(=O)c1CCN1CCC(=C(c2ccc(F)cc2)c2ccc(F)cc2)CC1` [Compound 112, 6-[2-[4-[bis(4-fluorophenyl)methylene]-1-piperidinyl]ethyl]-3,7-dimethyl-5H-thiazolo[3,2-a]pyrimidin-5-one], for which the IC50 was 0.651 pM.
For the compound `Cc1nc2n(c(=O)c1CCN1CCC(=C(c3ccc(F)cc3)c3ccc(F)cc3)CC1)CCS2` [Compound 113], the IC50 is 1.17 pM.
Take `Cc1cccc(C(=C2CCN(CCc3c(C)nc4n(c3=O)CCCC4)CC2)c2ccc(F)cc2)c1` [Compound 138, 3-[2-[4-[(4-fluorophenyl)(3-methylphenyl)methylene]-1-piperidinyl]ethyl]-6,7,8,9-tetrahydro-2-methyl-4H-pyrido[1,2-a]pyrimidin-4-one]: the IC50 was 2.65 pM.
For the compound `Cc1nc2ccccn2c(=O)c1CCN1CCC(=C(c2ccccc2)c2ccccc2)CC1` [Compound 18], the IC50 is less than 1.45 pM.
Consider `Cc1nc2sccn2c(=O)c1CCN1CCC(=C(c2ccccc2)c2cccc(C(F)(F)F)c2)CC1` [Compound 89], for which the IC50 was less than 4.91 pM.
The result for `COc1ccc(C(=C2CCN(CCc3c(C)nc4n(c3=O)CCCC4)CC2)c2ccc(F)cc2)cc1` [Compound 146, 3-[2-[4-[(4-fluorophenyl)(4-methoxyphenyl)methylene]-1-piperidinyl]ethyl]-6,7,8,9-tetrahydro-2-methyl-4H-pyrido[1,2-a]pyrimidin-4-one dihydrochloride] reads 2.32 pM; that for `Cc1nc2n(c(=O)c1CCN1CCC(=C(c3ccc(F)cc3)c3ccc(F)cc3)CC1)CCCS2` [Compound 29], 0.648 pM.
For `Cc1nc2sccn2c(=O)c1CCN1CCC(=C(c2ccccc2)c2ccccc2)CC1` [Compound 4] the value was 0.362 pM; for `Cc1nc2n(c(=O)c1CCN1CCC(=C(c3ccc(F)cc3)c3ccc(Cl)cc3)CC1)CCS2` [Compound 22], 2.62 pM; for `Cc1ccc(C(=C2CCN(CCc3c(C)nc4n(c3=O)CCCC4)CC2)c2ccccc2)cc1` [Compound 71], 0.705 pM.
For `Cc1ccc(C(=C2CCN(CCc3c(C)nc4ccccn4c3=O)CC2)c2ccc(F)cc2)cc1` [Compound 41] the value was 0.684 pM.
Consider `Cc1ccn2c(=O)c(CCN3CCC(=C(c4ccc(F)cc4)c4ccc(F)cc4)CC3)c(C)nc2c1` [Compound 59], for which the IC50 is 0.659 pM.
For the compound `COC1CN(CCc2c(C)nc3ccccn3c2=O)CCC1=C(c1ccc(F)cc1)c1ccc(F)cc1` (centres unmarked) [Compound 62], the IC50 was 5.58 pM.
The result for `Cc1nc2scc(C)n2c(=O)c1CCN1CCC(=C(c2ccc(O)cc2)c2ccc(F)cc2)CC1` [Compound 23, 6-[2-[4-[(4-fluorophenyl)-(4-hydroxyphenyl)methylene]-1-piperidinyl]ethyl]-3,7-dimethyl-5H-thiazolo[3,2-a]pyrimidin-5-one] reads 1.14 pM; that for `Cc1ccc(C(=C2CCN(CCc3c(C)nc4scc(C)n4c3=O)CC2)c2ccc(F)cc2)cc1` [Compound 38], 0.656 pM.
For `Cc1nc2sc(C)c(C)n2c(=O)c1CCN1CCC(=C(c2ccc(F)cc2)c2ccc(F)cc2)CC1` [Compound 127], the IC50 was 0.633 pM.
For `Cc1ccc(C(=C2CCN(CCc3c(C)nc4n(c3=O)CCCC4)CC2)c2ccc(F)cc2)cc1` [Compound 42] the value was 4.66 pM; for `Cc1ccc2nc(C)c(CCN3CCC(=C(c4ccc(F)cc4)c4ccc(F)cc4)CC3)c(=O)n2c1` [Compound 50], 1.46 pM; for `Cc1nc2ccccn2c(=O)c1CCN1CCC(=C(c2ccc(O)cc2)c2ccc(F)cc2)CC1` [Compound 20], 2.66 pM.
For `Cc1ccc(C(=C2CCN(CCc3c(C)nc4n(c3=O)CCS4)CC2)c2ccccc2)cc1` [Compound 130] the value was 0.175 pM.
For `Cc1nc2sccn2c(=O)c1CCN1CCC(=C(c2ccc(F)cc2)c2cccc(F)c2)CC1` [Compound 25], the IC50 was 0.293 pM.
The result for `Cc1nc2n(c(=O)c1CCN1CCC(=C(c3ccccc3)c3cccc(C(F)(F)F)c3)CC1)CCCC2` [Compound 86] reads 0.63 pM.
Consider `Cc1nc2n(c(=O)c1CCN1CCC(=C(c3ccc(F)cc3)c3ccc(Cl)cc3)CC1)CCCC2` [Compound 11], for which the IC50 was 2.54 pM.
As to `Cc1ccc(C(=C2CCN(CCc3c(C)nc4n(c3=O)CCCS4)CC2)c2ccc(F)cc2)cc1` [Compound 40], the IC50 was 1.14 pM.
With `Cc1nc2n(c(=O)c1CCN1CCC(=C(c3ccc(F)cc3)c3cccc(C(F)(F)F)c3)CC1)CCCS2` [Compound 120], the IC50 was 1.03 pM.
Regarding `Cc1nc2scc(C)n2c(=O)c1CCN1CCC(=C(c2ccccc2)c2ccc(F)cc2)CC1` [Compound 117], the IC50 was less than 1.33 pM.
The result for `Cc1nc2n(c(=O)c1CCN1CCC(=C(c3ccc(F)cc3)c3cccc(C(F)(F)F)c3)CC1)CCCC2` [Compound 140, 3-[2-[4-[(4-fluorophenyl)[3-(trifluoromethyl)phenyl]methylene]-1-piperidinyl]ethyl]-6,7,8,9-tetrahydro-2-methyl-4H-pyrido[1,2-a]pyrimidin-4-one dihydrochloride] reads 2.09 pM; that for `Cc1nc2n(c(=O)c1CCN1CCC(=C(c3ccc(F)cc3)c3ccc(Br)cc3)CC1)CCCC2` [Compound 35], 1.32 pM; that for `COc1ccc(C(=C2CCN(CCc3c(C)nc4ccccn4c3=O)CC2)c2ccc(F)cc2)cc1` [Compound 143, 3-[2-[4-[(4-fluorophenyl)(4-methoxyphenyl)methylene]-1-piperidinyl]ethyl]-2-methyl-4H-pyrido[1,2-a]pyrimidin-4-one dihydrochloride.monohydrate], 1.3 pM.
